The record followed here is patent US20150190416A1, “FILAGGRIN PRODUCTION PROMOTER, THERAPEUTIC AGENT FOR DISEASES ASSOCIATED WITH REDUCTION IN PRODUCTION OF FILAGGRIN, AND METHOD FOR SCREENING FOR SAID THERAPEUTIC AGENT” (KYOTO UNIVERSITY, priority 2012, published 2015).

The experiment concerns FLG monomer. The experiment is described as follows: FLG monomer in FLG gene mutant mice (flaky tail mice), Western blotting (Example 13). The class given is in vivo, mouse. Particulars: 1 μM 10 μl/ear intradermally, ear epidermis after 8 days. As for the experimental part:
In this example, the expression-increasing effect of Compound 1 (N-quinolylbenzamide derivative) on FLG monomer was confirmed by using FLG gene homozygous or heterozygous mutant mouse (Jackson Laboratory, flaky tail mice). The expression of the FLG protein was confirmed by Western blotting.
1) Compound 1 (1 μM) dissolved in ultrapure water (milliQ, EMD Millipore) was injected intradermally to left and right ears of an FLG homozygous or heterozygous mutant mouse (10 μl/ear). As a control, ultrapure water (milliQ, EMD Millipore) was injected intradermally in the same manner.
2) After 3 days, Compound 1 or ultrapure water was further injected intradermally in the same manner.
3) After 8 days, ears of each mouse were cut under anesthesia, the skin of the cut ear was peeled off by pinching cartilage, and the skin on the dermal side was soaked in PBS containing 20 mM EDTA at 37° C. for 30 minutes. Next, the epidermis of the ear was peeled off and […] of Lysis buffer (0.1 M Tris-HCl (pH 9.0), 6 M Urea, 1% 2-mercapto-ethanol, 1% SDS, 1 mM EDTA, and Protease inhibitor cocktail) were added to the epidermis, and the epidermis was homogenized with an electrically powered pestle in the same manner as in the step 4) of Example 11 to prepare a sample. The sample was subjected to electrophoresis, and then to western blotting to confirm the expression of FLG monomer. […]

Structures are written as SMILES.

On to `CCc1ccc(OCc2ccccc2C(=O)Nc2ccc3nc(C)cc(N)c3c2)cc1.Cl` [Compound 1, N-(4-Amino-2-methyl-6-quinolyl)-2-[(4-ethylphenoxy)methyl]benzamide hydrochloride], for which the “production of FLG monomer” value was “production of the FLG monomer caused by Compound 1 was confirmed” (FLG heterozygous mutant mouse) and “production of the FLG monomer was not observed” (FLG homozygous mutant mouse).
